{"source": "patent US9670142B2", "about": "“1,3-diaminocyclopentane carboxamide derivatives” (Merck Patent GmbH, priority 2013, dated 2017)", "note": "pIC50: −log10 of the molar value.", "data": [{"target": "human fatty acid synthase FASN (Homo sapiens (Human), UniProt P49327)", "sequence (P49327 whole entry)": "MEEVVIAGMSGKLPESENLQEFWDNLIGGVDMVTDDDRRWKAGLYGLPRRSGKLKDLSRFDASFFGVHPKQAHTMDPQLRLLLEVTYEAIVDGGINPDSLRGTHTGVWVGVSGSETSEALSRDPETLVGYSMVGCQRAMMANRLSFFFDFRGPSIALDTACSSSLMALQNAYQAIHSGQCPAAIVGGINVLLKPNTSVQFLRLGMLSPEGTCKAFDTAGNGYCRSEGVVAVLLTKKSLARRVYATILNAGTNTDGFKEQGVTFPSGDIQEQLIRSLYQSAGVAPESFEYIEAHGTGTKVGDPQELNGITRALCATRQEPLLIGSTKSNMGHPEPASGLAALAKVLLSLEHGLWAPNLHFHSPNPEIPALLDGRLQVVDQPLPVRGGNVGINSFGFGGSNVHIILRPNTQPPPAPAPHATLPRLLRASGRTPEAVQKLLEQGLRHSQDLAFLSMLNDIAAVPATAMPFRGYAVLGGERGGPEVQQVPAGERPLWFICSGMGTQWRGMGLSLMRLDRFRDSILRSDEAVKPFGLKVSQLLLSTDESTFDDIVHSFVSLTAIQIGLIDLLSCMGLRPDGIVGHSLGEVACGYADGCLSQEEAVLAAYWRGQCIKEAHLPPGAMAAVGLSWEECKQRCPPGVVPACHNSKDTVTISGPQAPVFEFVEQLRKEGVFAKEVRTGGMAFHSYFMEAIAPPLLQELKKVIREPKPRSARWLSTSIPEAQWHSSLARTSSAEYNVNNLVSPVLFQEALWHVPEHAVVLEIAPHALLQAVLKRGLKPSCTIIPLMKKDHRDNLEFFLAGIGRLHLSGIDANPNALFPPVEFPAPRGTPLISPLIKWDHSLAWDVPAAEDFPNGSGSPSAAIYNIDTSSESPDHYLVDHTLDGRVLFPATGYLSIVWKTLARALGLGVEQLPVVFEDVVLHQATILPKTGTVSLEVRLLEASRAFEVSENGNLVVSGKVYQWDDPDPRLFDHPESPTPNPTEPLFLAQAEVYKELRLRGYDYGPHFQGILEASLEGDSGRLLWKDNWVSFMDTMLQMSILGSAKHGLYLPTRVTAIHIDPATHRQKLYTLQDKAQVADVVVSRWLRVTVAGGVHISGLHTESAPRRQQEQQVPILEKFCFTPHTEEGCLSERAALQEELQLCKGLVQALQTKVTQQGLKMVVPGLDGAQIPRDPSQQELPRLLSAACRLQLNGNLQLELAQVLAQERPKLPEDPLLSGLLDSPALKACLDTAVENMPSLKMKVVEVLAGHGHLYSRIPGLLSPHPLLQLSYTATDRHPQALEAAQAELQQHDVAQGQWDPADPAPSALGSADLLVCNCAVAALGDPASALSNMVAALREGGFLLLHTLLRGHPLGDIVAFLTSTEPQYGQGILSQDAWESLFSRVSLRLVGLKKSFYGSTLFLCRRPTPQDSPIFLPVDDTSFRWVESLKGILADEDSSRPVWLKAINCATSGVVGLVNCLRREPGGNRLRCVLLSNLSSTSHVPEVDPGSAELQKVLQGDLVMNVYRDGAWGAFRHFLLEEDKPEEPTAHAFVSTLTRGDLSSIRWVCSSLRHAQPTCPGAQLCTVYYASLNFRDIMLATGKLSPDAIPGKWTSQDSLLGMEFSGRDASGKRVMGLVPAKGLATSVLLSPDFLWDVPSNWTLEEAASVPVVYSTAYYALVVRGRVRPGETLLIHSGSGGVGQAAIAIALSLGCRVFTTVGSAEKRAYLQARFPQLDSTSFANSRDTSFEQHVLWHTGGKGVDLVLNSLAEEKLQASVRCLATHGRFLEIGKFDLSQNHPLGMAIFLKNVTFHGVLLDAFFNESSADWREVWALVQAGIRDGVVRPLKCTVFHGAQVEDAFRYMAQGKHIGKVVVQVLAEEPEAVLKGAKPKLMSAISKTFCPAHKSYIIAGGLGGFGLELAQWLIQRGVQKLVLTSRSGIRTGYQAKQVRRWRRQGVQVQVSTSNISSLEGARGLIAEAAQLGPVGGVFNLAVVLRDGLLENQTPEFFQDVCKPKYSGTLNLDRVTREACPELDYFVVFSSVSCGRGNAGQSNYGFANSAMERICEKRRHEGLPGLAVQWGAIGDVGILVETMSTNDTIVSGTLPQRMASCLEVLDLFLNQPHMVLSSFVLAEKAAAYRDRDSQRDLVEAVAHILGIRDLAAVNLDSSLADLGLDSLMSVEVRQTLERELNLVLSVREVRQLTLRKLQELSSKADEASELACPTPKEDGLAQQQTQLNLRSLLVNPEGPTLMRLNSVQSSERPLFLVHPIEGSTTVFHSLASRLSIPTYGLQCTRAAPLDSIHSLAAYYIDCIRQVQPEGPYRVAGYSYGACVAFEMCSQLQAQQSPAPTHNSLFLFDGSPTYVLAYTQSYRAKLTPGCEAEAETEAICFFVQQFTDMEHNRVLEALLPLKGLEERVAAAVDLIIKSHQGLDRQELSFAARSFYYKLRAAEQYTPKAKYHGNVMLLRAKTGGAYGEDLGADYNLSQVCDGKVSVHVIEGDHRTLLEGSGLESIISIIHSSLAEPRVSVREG", "experiment": "Biochemical activity testing of human fatty acid synthase FASN (NADPH fluorescence intensity enzyme assay)", "conditions": "human recombinant full-length fatty acid synthase", "text": "Biochemical activity testing of human fatty acid synthase FASN\nFatty acid synthase FASN is a multifunctional enzyme with seven catalytic activities thereby synthesising long chain fatty acids especially palmitoyl-CoA in the presence of co-factor NADPH starting from the substrates acetyl-CoA and malonyl-CoA. The reductive synthesis is realized by the oxidation of NADPH to NADP. Since NADPH has a high fluorescence intensity quantum yield compared to NADP with excitation at 340 nm and emission at 460 nm, the reaction can be monitored via the decrease in fluorescence intensity. The biochemical FASN activity testing was performed as 384 well two-time-point kinetic fluorescence intensity assay format in Greiner low volume medium binding 384-well black microtiter plates in a total assay volume of 8 μl and was used for high throughput screen. In each well 3 μl 40 nM human recombinant full-length fatty acid synthase (produced in-house in SF9 cells) were dispensed in the following assay buffer: 50 mM potassium phosphate buffer pH 7.0, 0.005% (w/v) BSA, 2 mM Glutathione, 0.02% Tween-20. Then 2 μl of 200 μM NADPH in assay buffer were added, followed by the addition of the test compounds in 10 dilution concentrations starting with 30 μM (final concentration) to get a final DMSO content of 1% (v/v). The mixture was incubated for at least 15 min at room temperature. After the pre-incubation the enzymatic reaction was started by the addition of 2 μl substrate solution (80 μM acetyl-CoA, 240 μM malonyl-CoA). A first fluorescence intensity measurement (time point one) was performed with an Envision multimode reader (Perkin Elmer LAS Germany GmbH) at excitation wavelength 340 nm (lamp mode) and emission wavelength 460 nm. The reaction was incubated for 30 minutes at room temperature. After this the fluorescence intensity was measured again in the Envision using the same parameters as described above (second time point measurement). The data were analysed by subtracting the first time point measurement value from the second time point measurement value (after the enzymatic reaction). The differences of the emission signals were determined. These reflect directly the conversion rate of NADPH. The full value used was the inhibitor-free reaction. A pharmacological zero value was used like GSK837149A (Sigma-Aldrich) in a final concentration of 5-10 μM. The inhibitory values (IC50) were determined using either the program Symyx Assay Explorer® or Condosseo® from GeneData.", "values": [{"compound": "CN(C(=O)c1ccc(-c2nc3ccc(Cl)cc3o2)nn1)[C@@H]1CC[C@H](NC(=O)[C@@H]2CCCO2)C1", "note": "[Compound A158, 6-(6-chloro-1,3-benzoxazol-2-yl)-N-methyl-N-[(1R,3S)-3-[[(2S)-tetrahydrofuran-2-carbonyl]amino]cyclopentyl]pyridazine-3-carboxamide]", "pIC50": "5.52 to 6.52"}, {"compound": "CCC(=O)N[C@H]1CC[C@@H](N(C)C(=O)c2ccc(-c3nc4ccccc4o3)c(OC)c2)C1", "note": "[Compound A13, 4-benzoxazol-2-yl-3-methoxy-N-methyl-N-((1R,3S)-3-propionylamino-cyclopentyl)-benzamide]", "pIC50": "> 6.52"}, {"compound": "CO[C@@H](C)C(=O)N[C@H]1CC[C@@H](N(C)C(=O)c2ccc(-c3nc4ccccc4o3)cc2)C1", "note": "[Compound A33, 4-benzoxazol-2-yl-N-[(1R,3S)-3-((S)-2-methoxy-propionylamino)-cyclopentyl]-N-methyl-benzamide]", "pIC50": "> 6.52"}, {"compound": "CN(C(=O)c1ccc(-c2nc3cccc(F)c3o2)cc1)[C@@H]1CC[C@H](NC(=O)C2CC2)C1", "note": "[Compound A50, N-[(1R,3S)-3-(cyclopropanecarbonyl-amino)-cyclopentyl]-4-(7-fluoro-benzoxazol-2-yl)-N-methyl-benzamide]", "pIC50": "5.52 to 6.52"}, {"compound": "CCC(=O)N[C@H]1CC[C@@H](N(C)C(=O)c2ccc(-c3cc(F)c4[nH]ccc4c3)cc2)C1", "note": "[Compound A121, 4-(7-fluoro-1H-indol-5-yl)-N-methyl-N-((1R,3S)-3-propionylamino-cyclopentyl)-benzamide]", "pIC50": "> 6.52"}, {"compound": "CC(C)CC(=O)N[C@H]1CC[C@@H](N(C)C(=O)c2ccc(-c3nc4ccccc4o3)cc2)C1", "note": "[Compound A35, 4-benzoxazol-2-yl-N-methyl-N-[(1R,3S)-3-(3-methyl-butyrylamino)-cyclopentyl]-benzamide]", "pIC50": "> 6.52"}, {"compound": "CCC(=O)N[C@H]1CC[C@@H](N(C)C(=O)c2ccc(-c3ccc4[nH]cc(C#N)c4c3)cc2)C1", "note": "[Compound A99a, 4-(3-cyano-1H-indol-5-yl)-N-methyl-N-((1R,3S)-3-propionylamino-cyclopentyl)-benzamide]", "pIC50": "> 6.52"}, {"compound": "CCC(F)(F)C(=O)N[C@H]1CC[C@@H](N(C)C(=O)c2ccc(-c3nc4ccccc4o3)cc2)C1", "note": "[Compound A27, 4-benzoxazol-2-yl-N-[(1R,3S)-3-(2,2-difluoro-butyrylamino)-cyclopentyl]-N-methyl-benzamide]", "pIC50": "> 6.52"}, {"compound": "CCC(=O)N[C@H]1CC[C@@H](N(C)C(=O)c2ccc(-c3cc4cc[nH]c4cc3F)cc2)C1", "note": "[Compound A122, 4-(6-fluoro-1H-indol-5-yl)-N-methyl-N-((1R,3S)-3-propionylamino-cyclopentyl)-benzamide]", "pIC50": "> 6.52"}, {"compound": "CCC(=O)N[C@H]1CC[C@@H](N(C)C(=O)c2ccc(-c3ccc(C4CCC(C)CC4)cc3F)cc2)C1", "note": "(stereo partly drawn) [Compound A54, 2′-fluoro-4′-(4-methyl-cyclohexyl)-biphenyl-4-carboxylic acid methyl-((1R,3S)-3-propionylamino-cyclopentyl)-amide]", "pIC50": "5.52 to 6.52"}, {"compound": "CCC(=O)N[C@H]1CC[C@@H](N(C)C(=O)c2ccc(-c3ccc4c(c3)CC(=O)N4)cc2)C1", "note": "[Compound A94, N-methyl-4-(2-oxo-2,3-dihydro-1H-indol-5-yl)-N-((1R,3S)-3-propionylamino-cyclopentyl)-benzamide]", "pIC50": "> 6.52"}, {"compound": "CCC(=O)N[C@H]1CC[C@@H](N(C)C(=O)c2ccc(-c3nc4ccc(Cl)cc4o3)nn2)C1", "note": "[Compound A155, 6-(6-chloro-benzoxazol-2-yl)-pyridazine-3-carboxylic acid methyl-((1R,3S)-3-propionylamino-cyclopentyl)-amide]", "pIC50": "4.30 to 5.52"}, {"compound": "CCC(=O)N[C@H]1CC[C@@H](N(C)C(=O)c2ccc(-c3ccc4c(ccn4C)c3)cc2C)C1", "note": "[Compound A119, 2,N-dimethyl-4-(1-methyl-1H-indol-5-yl)-N-((1R,3S)-3-propionylamino-cyclopentyl)-benzamide]", "pIC50": "> 6.52"}, {"compound": "CCC(=O)N[C@H]1CC[C@@H](N(C)C(=O)c2ccc(-c3nc4ccccc4o3)cc2)C1", "note": "[Compound A1, 4-benzoxazol-2-yl-N-methyl-N-((1R,3S)-3-propionylamino-cyclopentyl)-benzamide]", "pIC50": "> 6.52"}, {"compound": "CN(C(=O)c1ccc(-c2nc3ccccc3o2)cc1)[C@@H]1CC[C@H](NC(=O)C(F)(F)C(F)(F)F)C1", "note": "[Compound A25, 4-benzoxazol-2-yl-N-methyl-N-[(1R,3S)-3-(2,2,3,3,3-pentafluoro-propionylamino)-cyclopentyl]-benzamide]", "pIC50": "5.52 to 6.52"}, {"compound": "CCC(=O)N[C@H]1CC[C@@H](N(C)C(=O)c2ccc(-c3cc4cn[nH]c4cc3C)cn2)C1", "note": "[Compound A103, 5-(6-methyl-1H-indazol-5-yl)-pyridine-2-carboxylic acid methyl-((1R,3S)-3-propionylamino-cyclopentyl)-amide]", "pIC50": "5.52 to 6.52"}, {"compound": "CCC(=O)N[C@H]1CC[C@@H](N(C)C(=O)c2ccc(-c3ccc4[nH]ncc4c3C)cc2)C1", "note": "[Compound A126, N-methyl-4-(4-methyl-1H-indazol-5-yl)-N-((1R,3S)-3-propionylamino-cyclopentyl)-benzamide]", "pIC50": "> 6.52"}, {"compound": "CN(C(=O)c1ccc(-c2nc3ccccc3o2)cc1)[C@@H]1CC[C@H](NC(=O)[C@H]2CCCO2)C1", "note": "[Compound A40, (R)-tetrahydro-furan-2-carboxylic acid {(1S,3R)-3-[(4-benzoxazol-2-yl-benzoyl)-methyl-amino]-cyclopentyl}-amide]", "pIC50": "> 6.52"}, {"compound": "CC[C@@H](C)CC(=O)N[C@H]1CC[C@@H](N(C)C(=O)c2ccc(-c3nc4ccccc4o3)cc2)C1", "note": "[Compound A31, 4-benzoxazol-2-yl-N-methyl-N-[(1R,3S)-3-((R)-3-methyl-pentanoylamino)-cyclopentyl]-benzamide]", "pIC50": "> 6.52"}, {"compound": "CCC(=O)N[C@H]1CC[C@@H](N(C)C(=O)c2ccc(-c3cn4cccnc4n3)cc2)C1", "note": "[Compound A10, 4-imidazo[1,2-a]pyrimidin-2-yl-N-methyl-N-((1R,3S)-3-propionylamino-cyclopentyl)-benzamide]", "pIC50": "> 6.52"}, {"compound": "CCC(=O)N[C@H]1CC[C@@H](N(C)C(=O)c2ccc(-c3cc(F)c4[nH]ccc4c3)nn2)C1", "note": "[Compound A136, 6-(7-fluoro-1H-indol-5-yl)-pyridazine-3-carboxylic acid methyl-((1R,3S)-3-propionylamino-cyclopentyl)-amide]", "pIC50": "5.52 to 6.52"}, {"compound": "CCCCC(=O)N[C@H]1CC[C@@H](N(C)C(=O)c2ccc(-c3nc4ccccc4o3)cc2)C1", "note": "[Compound A24, 4-benzoxazol-2-yl-N-methyl-N-((1R,3S)-3-pentanoylamino-cyclopentyl)-benzamide]", "pIC50": "> 6.52"}, {"compound": "CCC(=O)N[C@H]1CC[C@@H](N(C)C(=O)c2ccc(-c3ccc(C(F)(F)F)cc3)cc2)C1", "note": "[Compound A64, 4′-trifluoromethyl-biphenyl-4-carboxylic acid methyl-((1R,3S)-3-propionylamino-cyclopentyl)-amide]", "pIC50": "> 6.52"}, {"compound": "CCC(=O)N[C@H]1CC[C@@H](N(C)C(=O)c2ccc(-c3ccc(C)c(F)c3)cc2)C1", "note": "[Compound A66, 3′-fluoro-4′-methyl-biphenyl-4-carboxylic acid methyl-((1R,3S)-3-propionylamino-cyclopentyl)-amide]", "pIC50": "> 6.52"}, {"compound": "CCC(=O)N[C@H]1CC[C@@H](N(C)C(=O)c2ccc(-c3ccc4c(ccn4C)c3)nn2)C1", "note": "[Compound A118, 6-(1-methyl-1H-indol-5-yl)-pyridazine-3-carboxylic acid methyl-((1R,3S)-3-propionylamino-cyclopentyl)-amide]", "pIC50": "> 6.52"}, {"compound": "CCC(=O)N[C@H]1CC[C@@H](N(C)C(=O)c2ccc(-c3ccc4[nH]ccc4c3)c(F)c2)C1", "note": "[Compound A112, 3-fluoro-4-(1H-indol-5-yl)-N-methyl-N-((1R,3S)-3-propionylamino-cyclopentyl)-benzamide]", "pIC50": "> 6.52"}, {"compound": "CCC(=O)N[C@H]1CC[C@@H](N(C)C(=O)c2ccc(-c3ccc4cc[nH]c4c3)cc2)C1", "note": "[Compound A67, 4-(1H-indol-6-yl)-N-methyl-N-((1R,3S)-3-propionylamino-cyclopentyl)-benzamide]", "pIC50": "> 6.52"}, {"compound": "CCC(=O)N[C@H]1CC[C@@H](N(C)C(=O)c2ccc(-c3ccc4[nH]ccc4c3)cc2)C1", "note": "[Compound A95, 4-(1H-indol-5-yl)-N-methyl-N-((1R,3S)-3-propionylamino-cyclopentyl)-benzamide]", "pIC50": "> 6.52"}, {"compound": "CCC(=O)N[C@H]1CC[C@@H](N(C)C(=O)c2ccc(-c3ccc(Cl)c(F)c3)cc2)C1", "note": "[Compound A86, 4′-chloro-3′-fluoro-biphenyl-4-carboxylic acid methyl-((1R,3S)-3-propionylamino-cyclopentyl)-amide]", "pIC50": "> 6.52"}, {"compound": "CCC(=O)N[C@H]1CC[C@@H](N(C)C(=O)c2ccc(-c3ccc(OC(F)(F)F)c(F)c3)cc2)C1", "note": "[Compound A98, 3′-fluoro-4′-trifluoromethoxy-biphenyl-4-carboxylic acid methyl-((1R,3S)-3-propionylamino-cyclopentyl)-amide]", "pIC50": "> 6.52"}]}]}
